Test results from paper PMC8162404, “Proteomimetic surface fragments distinguish targets by function” (Chemical Science, 2020).

What was measured:
Gal-1 [1] = target: Gal-1; set-up: method as in PMID 15476813; conditions: native ligand used as competitor; cited from earlier work
CaM [2] = target: T1, CaM (Bos taurus, UniProt P62157); experiment: Pull-down assay with immobilized protein and LSM libraries; format: binding, bovine; conditions: H14 library; 1:2 stoichiometry assumed; read-out: Surface mapping KD (apparent)
T1 construct: made in house; host or cells: E. coli BL21 (DE3)
Procedure, shortened: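 His-tagged protein immobilized on Co-NTA resin, equilibrated 30 min at room temperature with LSM sublibraries (64 members, […]), equimolar protein to total probe. CaM buffer: 20 mM HEPES pH 7.4, 150 mM NaCl, 5 mM CaCl2. Bound fractions from HPLC-MS loss of unbound probe versus protein-free resin control; Kd derived.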

S100B [3] = target: T2, S100B (Homo sapiens, UniProt P04271); experiment: Competition pull-down with native ligand RSK1 (689–735); format: binding; conditions: H14 library; competitor peptide 200 µM; read-out: Surface mapping KD (apparent), competition
T2 construct: made in house; host or cells: Escherichia coli BL21(DE3)
T2 sequence (P04271 1-92): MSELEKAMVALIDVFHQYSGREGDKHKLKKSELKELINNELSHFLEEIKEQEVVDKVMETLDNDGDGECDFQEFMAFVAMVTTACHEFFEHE

CaM [4] = target: T1, CaM; experiment: Competition pull-down with native ligand TRPV1-Ct15; format: binding, bovine; conditions: H14 library; competitor peptide 200 µM; read-out: Surface mapping KD (apparent), competition
RecQ-WH [5] = target: T3, RecQ-WH (Escherichia coli, UniProt P15043); experiment: Competition pull-down with native ligand SSB-Ct8; format: binding, E. coli; conditions: H14 library; competitor peptide 200 µM; read-out: Surface mapping KD (apparent), competition
T3 construct: coding for residues 408– 523 of E. coli RecQ; made in house; host or cells: E. coli BL21(DE3)
T3 sequence (P15043 408-523): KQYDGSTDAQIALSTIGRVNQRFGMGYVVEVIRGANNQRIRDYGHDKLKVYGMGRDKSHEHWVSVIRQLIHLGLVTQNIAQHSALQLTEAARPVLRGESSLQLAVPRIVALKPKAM

RecQ-WH [6] = target: T3, RecQ-WH; experiment: Pull-down assay with immobilized protein and LSM libraries; set-up: species or system E. coli; conditions: H14 library; 1:1 binding assumed; read-out: Surface mapping KD (apparent)
Procedure, shortened: (§1)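 His-tagged protein immobilized on Co-NTA resin (64 µM) in 20 mM HEPES pH 7.4, 150 mM NaCl, equilibrated 30 min at room temperature with foldamer LSM sublibraries at equimolar total concentration. Unbound fractions quantified by HPLC-MS versus protein-free resin control; apparent KD assumes 1:1 binding.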

Gal-1 [7] = target: T4, Gal-1 (Homo sapiens, UniProt P09382); experiment: Competition pull-down with lactose; format: binding; conditions: H14 library; lactose 10 mM; read-out: Surface mapping KD (apparent), competition
T4 construct: made in house; host or cells: E. coli BL21(DE3)
T4 sequence (P09382 whole entry): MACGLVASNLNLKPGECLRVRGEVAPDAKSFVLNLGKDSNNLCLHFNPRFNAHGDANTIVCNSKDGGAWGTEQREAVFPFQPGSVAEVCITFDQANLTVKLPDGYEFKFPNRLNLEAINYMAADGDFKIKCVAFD
Procedure, shortened: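 His6-tagged proteins immobilized on Co-NTA resin at 64 µM final with 64-member LSM foldamer sublibraries (1 M each, as printed) in pH 7.4 HEPES/NaCl buffers (Ca2+/TCEP per target), 30 min RT; competitor peptides 200 µM final, lactose 10 mM for Gal-1. Bound fractions from LC-MS loss vs protein-free resin; KD assuming 1:1 binding.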

S100A4 [8] = target: T5, S100A4 (Homo sapiens, UniProt P26447); experiment: Competition pull-down with native ligand NMIIA (1893–1923); format: binding; conditions: H14 library; competitor peptide 200 µM; read-out: Surface mapping KD (apparent), competition
T5 construct: made in house; host or cells: Escherichia coli BL21(DE3)
T5 sequence (P26447 whole entry): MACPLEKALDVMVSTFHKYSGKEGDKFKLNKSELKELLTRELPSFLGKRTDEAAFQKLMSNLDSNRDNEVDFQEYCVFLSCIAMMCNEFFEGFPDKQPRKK

S100A4 [9] = target: T5, S100A4; experiment: Pull-down assay with immobilized protein and LSM libraries; format: binding; conditions: for Kd: H14 library, 1:1 binding assumed, read-out: Surface mapping KD (apparent); for Affinity class of probe (high, medium, low) in pull-down: H14 probes selected for validation
Procedure, shortened: (§2)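 Buffers were HEPES pH 7.4 with 150 mM NaCl, plus 1 mM TCEP and 1 mM CaCl2 (50 mM HEPES) for S100A4 and S100B, 1 mM TCEP for Gal-1, and no additive for RecQ-WH. Immobilized protein at 64 µM was equilibrated 30 min with the LSM sublibrary, and unbound probes were measured by LC-MS.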

S100B [10] = target: T2, S100B; experiment: as above; format: binding; conditions: for Kd: H14 library, 1:1 binding assumed, read-out: Surface mapping KD (apparent); for Affinity class of probe (high, medium, low) in pull-down: H14 probes selected for validation
Procedure, shortened: as §2

Gal-1 [11] = target: T4, Gal-1; experiment: as above; format: binding; conditions: H14 library; 1:1 binding assumed; read-out: Surface mapping KD (apparent)
Procedure, shortened: as §1

SMILES | Kd (Gal-1 [1]) | Kd (CaM [2]) | Kd (S100B [3]) | Kd (CaM [4]) | Kd (RecQ-WH [5]) | Kd (RecQ-WH [6]) | Kd (Gal-1 [7]) | Kd (S100A4 [8]) | Kd (S100A4 [9]) | Affinity class of probe (high, medium, low) in pull-down (S100A4 [9]) | Kd (S100B [10]) | Affinity class of probe (high, medium, low) in pull-down (S100B [10]) | Kd (Gal-1 [11])
OC[C@H]1O[C@@H](O[C@H]2[C@H](O)[C@@H](O)C(O)O[C@@H]2CO)[C@H](O)[C@@H](O)[C@H]1O (mixture of isomers) [Lactose] | 409 µM | – | – | – | – | – | – | – | – | – | – | – | –
CC[C@H](C)[C@@H](CC(=O)N[C@H]1CCCC[C@@H]1C(=O)N[C@H]1CCCC[C@@H]1C(=O)N[C@H](CC(=O)N[C@H]1CCCC[C@@H]1C(N)=O)Cc1ccccc1)NC(=O)[C@H]1CCCC[C@@H]1N [H14 IF] | – | 9 µM | 64 µM | 102 µM | 439 µM | 186 µM | 53 µM | 162 µM | 2 µM | high | 9 µM | high | 33 µM
CC[C@H](C)[C@@H](CC(=O)N[C@H]1CCCC[C@@H]1C(N)=O)NC(=O)[C@H]1CCCC[C@@H]1NC(=O)[C@H]1CCCC[C@@H]1NC(=O)C[C@@H](NC(=O)[C@H]1CCCC[C@@H]1N)[C@@H](C)CC [H14 II] | – | 9 µM | 147 µM | 280 µM | 364 µM | 160 µM | 50 µM | 101 µM | 2 µM | – | 19 µM | – | 24 µM
CC[C@H](C)[C@@H](CC(=O)N[C@H]1CCCC[C@@H]1C(=O)N[C@H]1CCCC[C@@H]1C(=O)N[C@H](CC(=O)N[C@H]1CCCC[C@@H]1C(N)=O)CC(C)C)NC(=O)[C@H]1CCCC[C@@H]1N [H14 IL] | – | 9 µM | 147 µM | 276 µM | 266 µM | 206 µM | 50 µM | 101 µM | 2 µM | high | 19 µM | high | 24 µM
CC[C@H](C)[C@@H](CC(=O)N[C@H]1CCCC[C@@H]1C(=O)N[C@H]1CCCC[C@@H]1C(=O)N[C@H](CC(=O)N[C@H]1CCCC[C@@H]1C(N)=O)Cc1c[nH]c2ccccc12)NC(=O)[C@H]1CCCC[C@@H]1N [H14 IW] | – | 0.4 µM | 67 µM | 88 µM | 315 µM | 195 µM | 65 µM | 244 µM | 8 µM | – | 21 µM | – | 38 µM
CC(C)C[C@@H](CC(=O)N[C@H]1CCCC[C@@H]1C(=O)N[C@H]1CCCC[C@@H]1C(=O)N[C@H](CC(=O)N[C@H]1CCCC[C@@H]1C(N)=O)Cc1ccccc1)NC(=O)[C@H]1CCCC[C@@H]1N [H14 LF] | – | 11 µM | 71 µM | 162 µM | 439 µM | 186 µM | 43 µM | 140 µM | 3 µM | – | 11 µM | – | 25 µM
CC[C@H](C)[C@@H](CC(=O)N[C@H]1CCCC[C@@H]1C(N)=O)NC(=O)[C@H]1CCCC[C@@H]1NC(=O)[C@H]1CCCC[C@@H]1NC(=O)C[C@H](CC(C)C)NC(=O)[C@H]1CCCC[C@@H]1N [H14 LI] | – | 16 µM | 147 µM | 280 µM | 355 µM | 160 µM | 50 µM | 101 µM | 2 µM | – | 19 µM | – | 24 µM
CC(C)C[C@@H](CC(=O)N[C@H]1CCCC[C@@H]1C(N)=O)NC(=O)[C@H]1CCCC[C@@H]1NC(=O)[C@H]1CCCC[C@@H]1NC(=O)C[C@H](CC(C)C)NC(=O)[C@H]1CCCC[C@@H]1N [H14 LL] | – | 16 µM | 147 µM | 276 µM | 253 µM | 206 µM | 32 µM | 117 µM | 1 µM | – | 28 µM | – | 17 µM
